Target: T1, Human soluble guanylate cyclase enzyme (hsGC) (Homo sapiens, UniProt Q02108+Q02153)
T1 construct: purchased Enzo Inc. ALX-201-177
T1 sequence (Q02153 1-619): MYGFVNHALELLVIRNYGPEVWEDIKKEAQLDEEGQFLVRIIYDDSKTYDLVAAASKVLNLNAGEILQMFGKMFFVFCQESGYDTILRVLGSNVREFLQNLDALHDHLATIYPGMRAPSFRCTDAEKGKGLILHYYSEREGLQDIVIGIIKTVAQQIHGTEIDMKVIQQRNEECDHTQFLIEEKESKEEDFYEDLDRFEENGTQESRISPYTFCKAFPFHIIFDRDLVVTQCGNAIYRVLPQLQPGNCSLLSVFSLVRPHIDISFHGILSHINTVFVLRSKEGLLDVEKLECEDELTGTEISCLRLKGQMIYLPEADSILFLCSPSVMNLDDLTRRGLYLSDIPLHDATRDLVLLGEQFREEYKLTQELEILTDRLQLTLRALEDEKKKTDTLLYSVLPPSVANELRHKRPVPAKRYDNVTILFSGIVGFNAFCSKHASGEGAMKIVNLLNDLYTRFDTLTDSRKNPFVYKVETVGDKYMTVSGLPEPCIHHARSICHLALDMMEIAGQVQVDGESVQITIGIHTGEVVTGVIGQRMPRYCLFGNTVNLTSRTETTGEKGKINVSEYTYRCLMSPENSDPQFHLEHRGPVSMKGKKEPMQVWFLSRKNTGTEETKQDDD
T1 sequence (Q02108 1-690): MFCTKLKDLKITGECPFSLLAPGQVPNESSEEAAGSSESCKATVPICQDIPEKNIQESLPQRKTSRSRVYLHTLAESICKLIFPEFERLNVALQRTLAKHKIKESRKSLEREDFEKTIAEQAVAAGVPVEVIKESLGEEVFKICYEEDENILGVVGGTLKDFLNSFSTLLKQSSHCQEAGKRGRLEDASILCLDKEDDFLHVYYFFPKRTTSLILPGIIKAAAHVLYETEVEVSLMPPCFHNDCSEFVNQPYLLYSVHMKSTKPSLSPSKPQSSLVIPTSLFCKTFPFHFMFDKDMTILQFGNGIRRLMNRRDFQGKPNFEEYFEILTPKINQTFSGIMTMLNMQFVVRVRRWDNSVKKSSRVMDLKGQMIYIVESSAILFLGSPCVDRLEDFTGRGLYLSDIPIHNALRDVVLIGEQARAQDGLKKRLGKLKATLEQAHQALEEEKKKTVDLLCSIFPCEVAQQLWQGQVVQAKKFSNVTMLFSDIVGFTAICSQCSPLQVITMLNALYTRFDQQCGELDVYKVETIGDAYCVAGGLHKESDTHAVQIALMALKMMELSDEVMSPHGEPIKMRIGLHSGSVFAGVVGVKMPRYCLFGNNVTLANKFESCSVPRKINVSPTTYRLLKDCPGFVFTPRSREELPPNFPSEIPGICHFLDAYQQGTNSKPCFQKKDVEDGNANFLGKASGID
Assay: Purified human sGC enzyme activity assay (without SNP)
Type: biochemical
Settings: compound at 30 μM, absence of SNP; fold over DMSO control; Table 5A
In short: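 Purified human sGC (5 ng) in 0.1 M Tris pH 8.0, 2 mM DTT, 2 mM MgCl2, 300 μM GTP, 1 mM IBMX, with compound at 10 or 30 μM final, 30 min at 37° C.; methanol-stopped. cGMP quantified against a standard curve; specific activity expressed as fold-change over DMSO control.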

Compound | Enzyme Activity (increase at 30 μM without SNP)
Nc1nc(-c2cc(-c3ccon3)n(Cc3ccccc3F)n2)ncc1NC(=O)C1(c2ccccc2)CC1 [Compound 27] | D (10 or <20 fold increase)
Nc1nc(-c2cc(-c3ccon3)n(Cc3ccccc3F)n2)ncc1NC(=O)C1(F)CC1 [Compound 35] | D (10 or <20 fold increase)
Nc1nc(-c2cc(-c3ccon3)n(Cc3cccc(F)c3F)n2)ncc1NC(=O)C1(C(F)(F)F)CC1 [Compound 40] | C (5 to <10 fold increase)

From patent US20150342954A1, “2-BENZYL, 3-(PYRIMIDIN-2-YL) SUBSTITUTED PYRAZOLES USEFUL AS SGC STIMULATORS” (IRONWOOD PHARMACEUTICALS, INC., priority 2011, published 2015)
